Consider 8 compounds from patent publication US5484778A, “Phthalocyanine photosensitizers for photodynamic therapy and methods for their use” (priority 1993, dated 1996).

The subject of one data set is RIF-1 tumors. As to the kind of experiment: PDT of RIF-1 implanted tumors (Table 7). The settings on record: for effect on tumor volume / growth (in words): 1 mg/kg; for Doubling Time of Initial Tumor Volume after PDT: 675 nm, 135 J/cm^2. It counts as in vivo, C3H/HeN mice. As for the experimental part: The relative effectiveness at reducing tumor volume of selected phthalocyanine compounds at a given dosage was compared in vivo. RIF-1, i.e., radiation-induced fibrosarcoma, tumors were implanted into the backs of C3H/HeN mice. One tumor was implanted per mouse. Each of the phthalocyanine compounds listed in Table 7 was sonicated and vortexed in corn oil to produce a suspension. When the tumors reached […] in diameter and 2-3 mm in thickness, each mouse received 1 mg/kg in 0.1 ml of the corn oil, of the phthalocyanine suspension. For comparison, select mice received a conventional photosensitizer; either 5 mg/kg of chloroaluminum phthalocyanine tetrasulfonate, herein also referred to as "AlPcTS" in phosphate buffered saline or 5 mg/kg of Photofrin®-II in 5% dextrose. Twenty-four hours after the photosensitizers were administered, the tumors were irradiated with visible radiation delivered by an argon-pumped dye laser. The mice that received a phthalocyanine photosensitizer received light having a wavelength of 675 nm and the mice that received the Photofrin® II photosensitizer received light having a wavelength of 630 nm. Each tumor received 135 J/cm^2 of radiation. Tumor size was measured every day using calipers. The initial tumor volume was 50±10 mm^3. Tumor volume was calculated according to the hemiellipsoid model by the formula: [formula] Where l is length Where W is width

The next data set has as its system L5178Y cells. The data set is described as follows: Induction of apoptosis (DNA fragmentation) in L5178Y-R cells (Table 6). Format: cell-based, mouse. The settings on record: for induction of apoptosis: 1 μM at a fluence of 30 kJ/m^2. How it is done: (§1) Mouse lymphoma L5178y-R (hereinafter also referred to as "LY-R") cells were grown in suspension culture as described in Ramakrishnan N., Oleinick, N. L. Clay, M. E., Horng, M. F., Antunez, A. R., and Evans H. H., DNA lesions and DNA degradation in mouse lymphoma L5178Y cells after photodynamic treatment sensitized by chloroaluminum phthalocyanine. Photochem. Photobiol. 50, 373-378, 1989 and Agarwal, M. L., Clay, M. E., Harvey, E. J., Evans, H. H., Antunez, A. R., and Oleinick, N. L. Photodynamic therapy induces rapid cell death by apoptosis in L5178Y mouse lymphoma cells. Cancer Res., 51, 5993-5996, 1991.
(§2) The cells were used while in exponential growth. Stock solutions of either 0.5 or 1 mM of PcIV, PcXII, PcX, PcXVIII were prepared in dimethylformamide unless otherwise indicated and added to the 10 mL medium at a rate of 1 μL per mL. After allowing 18 hours for uptake of the phthalocyanine into the cells, the flasks containing the cultures were placed on a glass exposure tray above a 500-W tungsten-halogen lamp. The exposure tray was fitted with a 600-nm high-pass filter. Flasks were exposed to various fluences of red light (up to 30 kJ/m^2) at a fluence rate of approximately 74 W/m^2). After irradiation, the cells were collected by centrifugation.
(§3) For measurement of clonogenic cell survival, aliquots were plated in medium containing soft agar as described in Ramakrishnan N., Oleinick, N. L. Clay, M. E., Horng, M. F., Antunez, A. R., and Evans H. H., DNA lesions and DNA degradation in mouse lymphoma L5178Y cells after photodynamic treatment sensitized by chloroaluminum phthalocyanine. Photochem. Photobiol. 50, 373-378, 1989. The aliquots were plated in sufficient numbers to produce 50-200 colonies. The dishes were kept in an incubator at 37° C. in an atmosphere of 5% CO2 and 95% air for 10-14 days to allow viable cells to form colonies. Colonies were counted by eye. Controls treated with the phthalocyanine alone had plating efficiencies of ~90%. The plating efficiencies of the treated cells are normalized to the plating efficiencies of control cells in each experiment. For measurement of the induction of apoptosis, DNA was isolated from the treated and control cells 2 hours after photodynamic therapy, subjected to electrophoresis on 1.5% agarose, stained with ethidium bromide, and visualized by UV transillumination, as described in Agarwal et. al. The results are shown in Tables 4, 5 and 6 and in FIG. 3.
Cells were treated with various concentrations of the compounds listed in the table and various light fluences. DNA gels were prepared and examined for the characteristic "ladder" pattern of DNA fragments. For each Pc, the minimum total PDT dose tested (calculated as the product of the minimum phthalocyanine concentration and the minimum fluence) which produced visible DNA fragments is recorded. […] PcXVIII was also added at 0.5 and 1.0 μM.

Data set [1] relates to V79 cells. The data set is described as follows: Clonogenicity, killing of V79 cells using photodynamic therapy (Table 3). It counts as cell-based, Chinese hamster. The settings on record: for photosensitizing activity, killing V79 cells (in words): discussion of Table 3. As for the experimental part:
Using the cell culture methods described above, V79 cells Chinese hamster lung fibroblasts were treated with either 0.5 or 1.0 μM of the phthalocyanines listed in Table 3. About 18 hours thereafter, the cells were irradiated with increasing doses of 675 nm broad band red light from a 500 W tungsten-halogen lamp fitted with a 600 nm high pass filter, to determine the light dosage that would kill 90% of the phthalocyanine treated cells. Where 90% of the cells were not killed, the maximum percent of cells killed were determined, (expressed as % survival) and the related light dosage recorded.

In the next data set the test system is L5178Y-R (LY-R) cells. As to the kind of experiment: Clonogenic survival of PDT-treated L5178Y-R cells (Tables 4 and 5, FIG. 3). Format: cell-based, mouse. The settings on record: 0.5 μM. How it is done:
as §1, §2, §3
In Table 4 each phthalocyanine was present at 0.5 μM, and the normalized plating efficiencies are presented as mean and standard deviation at each fluence tested. […] This relative activity of these four phthalocyanines is the same as obtained from screening in V79 cells.
PcXII when present in the culture medium at 0.5 μM requires less light, that is the lowest fluence, to kill either 50% […] of the cells. PcIV is about 80% as active as PcXII, PcX is 44% as active as PcXII and PcXVIII is 22% as active as PcXII.

Data set [2] concerns V79 cells.
Experimental: (§4) V79 cells Chinese hamster lung fibroblasts were cultured using the cell culture methods described above. […] When the filters were dry, the phthalocyanines were extracted into ethanol and the absorption determined at the peak wavelength, usually 668 nm.
The subject of data set [3] is V79 cells. As to the kind of experiment: Uptake of additional phthalocyanines into V79 cells (Table 2). The settings on record: for Uptake into V79 cells: 18 hours; for Uptake into V79 cells, composite value: average of all data; for Uptake (from Table 2): repeated in Table 3.
Experimental: as §4
Where [4] appears, read: 0.5 μM, 18 h, light dose killing 90% of cells.

Entries after “also recorded” stand apart in the source; their conditions may differ. Read-outs that look alike come from different tables or passages of the source.

As to `CCN(CCC[Si](C)(C)O[Si]1(O[Si](C)(C)CCCN(CC)CCN(C)C)n2c3c4ccccc4c2N=C2N=C(N=c4c5ccccc5c(n41)=NC1=NC(=N3)c3ccccc31)c1ccccc12)CCN(C)C` [Compound XVIII, SiPc[OSi(CH3)2 (CH2)3 N(CH2 CH3)(CH2)2 N(CH3)2]2], the “effect on tumor volume / growth (in words)” value in the data set on RIF-1 tumors is given as “particularly effective in reducing tumor volume”. In the data set on RIF-1 tumors (1 mg/kg in corn oil), the “Doubling Time of Initial Tumor Volume after PDT” value (“Doubling Time” below) amounted to 12 days. The “Minimum Demonstrated Condition to induce apoptosis: C × F” value (“Minimum Demonstrated Condition … C × F” for short) came out at 5.0 μm × kJ/m^2 in the data set with L5178Y cells (0.5 μM) and 3.0 μm × kJ/m^2 with L5178Y cells (1.0 μM). The “Minimum Demonstrated Condition to induce apoptosis: Fluence” value (“Minimum Demonstrated Condition … Fluence” for short) was determined as 10.0 kJ/m^2 in the data set on L5178Y cells (0.5 μM) and 3.0 kJ/m^2 with L5178Y cells (1.0 μM). Also, in the data set on L5178Y cells (various concentrations and fluences), the “apoptosis (in words)” value is “minimum value of C×F differed only slightly for the two conditions”. Moreover, the “LD 90” value came out at 7 kJ/m^2 with V79 cells [1] (1 μM, 18 h) and 7.81 kJ/m^2 in the data set with L5178Y-R (LY-R) cells (fluence reducing survival to 10%). In the data set on V79 cells [1], the “photosensitizing activity, killing V79 cells (in words)” value (shortened to “photosensitizing activity”) is “good activity”. Also, the “activity relative to PcXII” value in the data set with L5178Y-R (LY-R) cells (from Table 5) is reported as 22%. In the data set on L5178Y-R (LY-R) cells (fluence reducing survival to 50%), this compound showed an LD50 of 5.00 kJ/m^2. For the same compound, the “photosensitizer activity in LY-R cells (in words)” value with L5178Y-R (LY-R) cells (listed as PcXVIII) is listed as “active photosensitizers; also recorded: least active”.

Consider “HOSiPcOSi(CH3)2 (CH2)3 N[(CH2)3 N(CH3)2 ]2 [Compound XXVII]”, for which the “LD 90” value in the data set with V79 cells [1] (setting [4]) is recorded as 6.8 kJ/m^2. In the data set with V79 cells [2], the “Uptake (from Table 2)” value worked out at 1.5 n Moles/10^6 cells/μM; the “Uptake into V79 cells, composite value” is recorded as 1.5 n Moles/10^6 cells/μM; the “uptake by V79 cells (in words)” value is listed as “taken up particulary well”.

As to `CN(C)CCCCCCCC[Si](C)(C)O[Si]1(O)n2c3c4ccccc4c2N=C2N=C(N=c4c5ccccc5c(n41)=NC1=NC(=N3)c3ccccc31)c1ccccc12` (stereo not drawn) [Compound XXII, HOSiPcOSi(CH3)2 (CH2)8 N(CH3)2], in the data set on L5178Y cells (0.5 μM), the “Minimum Demonstrated Condition … C × F” value is 5.0 μm × kJ/m^2 and the “Minimum Demonstrated Condition … Fluence” value is given as 10.0 kJ/m^2. In the data set on V79 cells [1] (setting [4]), the “LD 90” value is reported as 10 kJ/m^2.

As to “chloroaluminum phthalocyanine tetrasulfonate [AlPcTS, reference compound]”, the “Doubling Time” value in the data set on RIF-1 tumors (5 mg/kg in phosphate buffered saline) is 7 days.

Consider `CN1CCN(CCC[Si](C)(C)O[Si]2(O)n3c4c5ccccc5c3N=C3N=C(N=c5c6ccccc6c(n52)=NC2=NC(=N4)c4ccccc42)c2ccccc23)CC1` (stereo not drawn) [Compound XXVIII, HOSiPcOSi(CH3)2 (CH2)3 NC4 H8 NCH3], for which, in the data set with RIF-1 tumors (1 mg/kg in corn oil), the “Doubling Time” value was 24 days. Moreover, the “effect on tumor volume / growth (in words)” value with RIF-1 tumors (listed as Pc XXVIII) is “significantly impair the growth of the tumors”; in the data set on RIF-1 tumors (listed as PcXXVIII), “particularly effective in reducing tumor volume”. Also, in the data set with L5178Y cells (0.3 μM), the “Minimum Demonstrated Condition … C × F” value was 0.9 μm × kJ/m^2. Moreover, the “Minimum Demonstrated Condition … Fluence” value in the data set on L5178Y cells (0.3 μM) amounted to 3.0 kJ/m^2. Moreover, the “LD 90” value with V79 cells [1] (setting [4]) was found to be 1.8 kJ/m^2. Further, the “photosensitizing activity” value is given as “photodynamic killing efficiency is superior to PcXII” with V79 cells [1] (listed as Pc XXVIII) and “most active at killing V79 cells; also recorded: highest activity in killing V79 cells of all of the phthalocyanines” with V79 cells [1] (listed as PcXXVIII).

Turning to `C[Si](C)(CCCCN)O[Si]1(O[Si](C)(C)CCCCN)n2c3c4ccccc4c2N=C2N=C(N=c4c5ccccc5c(n41)=NC1=NC(=N3)c3ccccc31)c1ccccc12` [Compound VII, SiPc[OSi(CH3)2 (CH2)4 NH2]2], in the data set with L5178Y cells (0.5 μM), the “Minimum Demonstrated Condition … C × F” value came to 1.5 μm × kJ/m^2 and the “Minimum Demonstrated Condition … Fluence” value was 3.0 kJ/m^2. Besides, the “LD 90” value in the data set with V79 cells [1] (0.5 μM, preplated data only) is on record as 4 kJ/m^2. Also, the “photosensitizing activity” value in the data set with V79 cells [1] (listed as PcVII) is “most active at killing V79 cells; also recorded: one of the better photosensitizers”. Also, in the data set on V79 cells [2], the “Uptake (from Table 2)” value is 0.2 n Moles/10^6 cells/μM; the “Uptake into V79 cells, composite value” amounted to 0.2 n Moles/10^6 cells/μM; the “uptake by V79 cells (in words)” value was “poor uptake”.

`CCN(CC)c1ccc2c(c1)Oc1cc(N(CC)CC)ccc1C21c2ccccc2C(=O)N1CCCC[Si](C)(C)O[Si]1(O[Si](C)(C)C(C)(C)C)n2c3c4ccccc4c2N=C2N=C(N=c4c5ccccc5c(n41)=NC1=NC(=N3)c3ccccc31)c1ccccc12` (stereo not drawn) [Compound XV, (CH3)3 C(CH3)2 SiOSiPcOSi(CH3)2 (CH2)4 NCOC27 H30 N2 O]: the induction of apoptosis entry in the data set on L5178Y cells is “did not induce apoptosis”. Further, the Cell survival at highest light dose at 4 µM in the data set on V79 cells [1] (Cricetulus griseus, V79, 4 μM, at 20 kJ/m^2, read-out: Maximum Effect (% survival)) was 81%. In addition, the “Uptake into V79 cells” value in the data set with V79 cells [3] (1 μM) was found to be 0.01 ± 0.01 n Moles/10^6 cells; in the data set on V79 cells [3] (4 μM), 0.14 ± 0.12 n Moles/10^6 cells. For the same compound, the “Uptake into V79 cells, composite value” in the data set on V79 cells [3] is recorded as less than 0.05 n Moles/10^6 cells/μM. The “Uptake (from Table 2)” value in the data set on V79 cells [3] stood at 0.05 n Moles/10^6 cells/μM.

As to `C[Si](C)(CCCCNC(=S)N[C@@H]1O[C@H](CO)[C@@H](O)[C@H](O)[C@H]1O)O[Si]1(O[Si](C)(C)CCCCNC(=S)N[C@@H]2O[C@H](CO)[C@@H](O)[C@H](O)[C@H]2O)n2c3c4ccccc4c2N=C2N=C(N=c4c5ccccc5c(n41)=NC1=NC(=N3)c3ccccc31)c1ccccc12` [Compound XI, SiPc[OSi(CH3)2 (CH2)4 NHCSNHC6 H11l O5 ]2], the induction of apoptosis result with L5178Y cells was “did not induce apoptosis”. In addition, the Cell survival at highest light dose at 1 µM in the data set on V79 cells [1] (Cricetulus griseus, V79, 1 μM, at 20 kJ/m^2, read-out: Maximum Effect (% survival)) was 100%. In addition, the entries for the “Uptake into V79 cells” value with V79 cells [3] (1 μM) and with V79 cells [3] (4 μM) were 0.1 n Moles/10^6 cells and 0.3 ± 0.1 n Moles/10^6 cells, respectively. The “Uptake into V79 cells, composite value” in the data set on V79 cells [3] is reported as 0.1 n Moles/10^6 cells/μM. In addition, in the data set with V79 cells [3], the “Uptake (from Table 2)” value is listed as 0.1 n Moles/10^6 cells/μM.
